Data from publication PMC9230548, “Synthesis and Biological Evaluation of Novel Synthetic Indolone Derivatives as Anti-Tumor Agents Targeting p53-MDM2 and p53-MDMX” (Molecules, 2022).
Like-named read-outs stand apart in the source and are kept apart here.

Legend:
[1] = molecular target: MDM2 (Homo sapiens, UniProt Q00987); assay: fluorescence polarization assay, MDM2 binding
Experimental: (§1) The MDM2 and MDMX binding evaluation for the target compounds was carried out using the fluorescence polarization assay.
(§2) Dose-dependent MDM2 and MDMX binding evaluations were carried out using the fluorescence polarization assay.
(§3) A total of 30 nM preincubated (30 min) MDM2 (or MDMX) and 10 nM PMDM-F peptide in reaction buffer (100 μL, potassium phosphate, 100 mM; bovine gamma globulin, 100 mg/mL; sodium azide, 0.02%) were added into a 96-well plate containing the tested compounds at pH 7.5.

[2] = molecular target: T1, MDMX (Homo sapiens, UniProt O15151); assay: fluorescence polarization assay, MDMX binding
T1 sequence (O15151 1-490): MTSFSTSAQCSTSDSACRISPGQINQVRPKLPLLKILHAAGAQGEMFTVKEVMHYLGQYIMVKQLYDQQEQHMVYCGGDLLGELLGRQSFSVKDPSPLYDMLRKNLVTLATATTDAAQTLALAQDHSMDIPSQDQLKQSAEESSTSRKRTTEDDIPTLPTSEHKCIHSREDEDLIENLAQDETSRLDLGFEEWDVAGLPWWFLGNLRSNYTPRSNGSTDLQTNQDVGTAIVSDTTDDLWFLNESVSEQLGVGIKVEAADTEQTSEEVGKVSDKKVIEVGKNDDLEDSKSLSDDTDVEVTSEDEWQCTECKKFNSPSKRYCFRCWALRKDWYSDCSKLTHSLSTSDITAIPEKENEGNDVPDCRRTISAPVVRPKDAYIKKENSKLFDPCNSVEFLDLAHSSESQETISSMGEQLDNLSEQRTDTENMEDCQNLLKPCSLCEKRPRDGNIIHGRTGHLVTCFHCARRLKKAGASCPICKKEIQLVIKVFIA
Experimental: as §1, §2, §3

[3] = read-out: Ki (μM) ± SD MDM2, fluorescence polarization, PMDM-F peptide, pH 7.5
[4] = read-out: Ki (μM) ± SD MDMX, fluorescence polarization, PMDM-F peptide, pH 7.5

Chain of MDM2 (Q00987 whole entry): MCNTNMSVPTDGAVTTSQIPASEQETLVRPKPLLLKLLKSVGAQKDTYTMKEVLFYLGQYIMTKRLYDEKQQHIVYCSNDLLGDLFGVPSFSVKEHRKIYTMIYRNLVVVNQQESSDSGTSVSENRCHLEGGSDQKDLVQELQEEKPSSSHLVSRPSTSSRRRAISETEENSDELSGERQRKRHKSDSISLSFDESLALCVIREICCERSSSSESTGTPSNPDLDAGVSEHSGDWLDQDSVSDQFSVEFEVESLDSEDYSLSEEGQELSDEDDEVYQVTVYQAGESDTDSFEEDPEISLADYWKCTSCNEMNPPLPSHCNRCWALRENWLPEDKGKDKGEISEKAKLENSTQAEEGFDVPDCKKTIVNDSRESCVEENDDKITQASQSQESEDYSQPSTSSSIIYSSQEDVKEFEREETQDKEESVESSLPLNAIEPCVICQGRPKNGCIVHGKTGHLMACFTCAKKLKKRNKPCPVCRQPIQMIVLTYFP

Row | SMILES | melting point [°C] | Ki [1] [µM] | Ki [2] [µM] | Ki [1, 3] [µM] | Ki [2, 4] [µM]
1 | O=C1/C(=C/c2ccccc2Cl)c2ccccc2N1S(=O)(=O)c1ccccc1 [Compound A1, (E)-3-(2-chlorobenzylidene)-1-(phenylsulfonyl)indolin-2-one] | 138.2 to 139.9 | 4.39 ± 0.82 | > 50 |  | 
2 | Cc1ccccc1S(=O)(=O)N1C(=O)/C(=C/c2ccccc2Cl)c2ccccc21 [Compound A2, (E)-3-(2-chlorobenzylidene)-1-(o-tolylsulfonyl)indolin-2-one] |  | 7.23 ± 1.03 | > 50 |  | 
3 | Cc1cccc(S(=O)(=O)N2C(=O)/C(=C/c3ccccc3Cl)c3ccccc32)c1 [Compound A3, (E)-3-(2-chlorobenzylidene)-1-(m-tolylsulfonyl)indolin-2-one] |  | 5.58 ± 0.99 | > 50 |  | 
4 | Cc1ccc(S(=O)(=O)N2C(=O)/C(=C/c3ccccc3Cl)c3ccccc32)cc1 [Compound A4, (E)-3-(2-chlorobenzylidene)-1-tosylindolin-2-one] | 148.9 to 150.5 | 10.2 ± 1.45 | > 50 |  | 
5 | O=C1/C(=C/c2ccccc2Cl)c2ccccc2N1S(=O)(=O)c1ccccc1Cl [Compound A5, (E)-3-(2-chlorobenzylidene)-1-((2-chlorophenyl)sulfonyl)indolin-2-one] | 157.2 to 158.1 | 3.43 ± 0.57 | 42.1 ± 6.35 |  | 
6 | O=C1/C(=C/c2ccccc2Cl)c2ccccc2N1S(=O)(=O)c1ccc(Cl)cc1 [Compound A7, (E)-3-(2-chlorobenzylidene)-1-((4-chlorophenyl)sulfonyl)indolin-2-one] | 172.4 to 173.1 | 1.53 ± 0.19 | 20.4 ± 2.62 |  | 
7 | O=C1/C(=C/c2cccc(Cl)c2)c2ccccc2N1S(=O)(=O)c1ccccc1 [Compound A8, (E)-3-(3-chlorobenzylidene)-1-(phenylsulfonyl)indolin-2-one] | 115.1 to 117.3 | 1.47 ± 0.15 | 10.3 ± 1.45 |  | 
8 | Cc1ccccc1S(=O)(=O)N1C(=O)/C(=C/c2cccc(Cl)c2)c2ccccc21 [Compound A9, (E)-3-(3-chlorobenzylidene)-1-(o-tolylsulfonyl)indolin-2-one] | 140.9 to 143.2 |  |  | 6.95 ± 0.97 | > 50
9 | Cc1cccc(S(=O)(=O)N2C(=O)/C(=C/c3cccc(Cl)c3)c3ccccc32)c1 [Compound A10, (E)-3-(3-chlorobenzylidene)-1-(m-tolylsulfonyl)indolin-2-one] | 147.4 to 149.2 |  |  | 5.36 ± 1.06 | > 50
10 | Cc1ccc(S(=O)(=O)N2C(=O)/C(=C/c3cccc(Cl)c3)c3ccccc32)cc1 [Compound A11, (E)-3-(3-chlorobenzylidene)-1-tosylindolin-2-one] | 136.3 to 138.1 | 5.19 ± 1.25 | > 50 |  | 
11 | O=C1/C(=C/c2cccc(Cl)c2)c2ccccc2N1S(=O)(=O)c1cccc([N+](=O)[O-])c1 [Compound A22, (E)-3-(3-chlorobenzylidene)-1-((3-nitrophenyl)sulfonyl)indolin-2-one] | 195.3 to 197 | 1.39 ± 0.21 | 13.6 ± 1.47 |  | 
12 | COc1ccc(S(=O)(=O)N2C(=O)/C(=C/c3cccc(Cl)c3)c3ccccc32)cc1 [Compound A23, (E)-3-(3-chlorobenzylidene)-1-((4-methoxyphenyl)sulfonyl)indolin-2-one] | 175.1 to 176.7 | 3.77 ± 0.45 | 42.2 ± 4.73 |  | 
13 | Cc1ccccc1S(=O)(=O)N1C(=O)/C(=C/c2ccc(Cl)cc2)c2ccccc21 [Compound A24, (E)-3-(4-chlorobenzylidene)-1-(o-tolylsulfonyl)indolin-2-one] | 155.2 to 157.1 |  |  | 3.17 ± 0.37 | 34.7 ± 4.02
14 | Cc1cccc(S(=O)(=O)N2C(=O)/C(=C/c3ccc(Cl)cc3)c3ccccc32)c1 [Compound A25, (E)-3-(4-chlorobenzylidene)-1-(m-tolylsulfonyl)indolin-2-one] |  |  |  | 4.93 ± 0.47 | > 50
15 | Cc1ccc(S(=O)(=O)N2C(=O)/C(=C/c3ccc(Cl)cc3)c3ccccc32)cc1 [Compound A26, (E)-3-(4-chlorobenzylidene)-1-tosylindolin-2-one] | 134.1 to 135.6 |  |  | 4.68 ± 0.39 | > 50
16 | O=C1/C(=C/c2ccc(Cl)cc2)c2ccccc2N1S(=O)(=O)c1ccccc1 [Compound A28, (E)-3-(4-chlorobenzylidene)-1-(phenylsulfonyl)indolin-2-one] |  | 2.18 ± 0.29 | 37.4 ± 3.57 |  | 
17 | O=C1/C(=C/c2cccc(Cl)c2)c2ccc(Cl)cc2N1S(=O)(=O)c1cccc(Cl)c1 [Compound A30, (E)-6-chloro-3-(3-chlorobenzylidene)-1-((3-chlorophenyl)sulfonyl)indolin-2-one] | 132.6 to 133.8 |  |  | 1.39 ± 0.15 | 29 ± 2.18
18 | O=C1/C(=C/c2ccccc2Cl)c2ccccc2N1C(=O)c1ccccc1Cl [Compound B1, (E)-1-(2-chlorobenzoyl)-3-(2-chlorobenzylidene)indolin-2-one] | 214.5 to 216.2 | 10.2 ± 2.01 | > 50 |  | 
19 | O=C1/C(=C/c2ccccc2Cl)c2ccccc2N1C(=O)c1cccc(Cl)c1 [Compound B2, (E)-1-(3-chlorobenzoyl)-3-(2-chlorobenzylidene)indolin-2-one] | 219 to 220.8 | 8.43 ± 1.58 | > 50 |  | 
20 | O=C1/C(=C/c2ccccc2Cl)c2ccccc2N1C(=O)c1ccc(Cl)cc1 [Compound B3, (E)-1-(4-chlorobenzoyl)-3-(2-chlorobenzylidene)indolin-2-one] | 221.3 to 222.7 | 7.86 ± 1.34 | > 50 |  | 
21 | Cc1ccccc1C(=O)N1C(=O)/C(=C/c2ccccc2Cl)c2ccccc21 [Compound B4, (E)-3-(2-chlorobenzylidene)-1-(2-methylbenzoyl)indolin-2-one] | 111.2 to 112.8 | 16.4 ± 2.77 | > 50 |  | 
22 | Cc1cccc(C(=O)N2C(=O)/C(=C/c3ccccc3Cl)c3ccccc32)c1 [Compound B5, (E)-3-(2-chlorobenzylidene)-1-(3-methylbenzoyl)indolin-2-one] | 128.2 to 129.7 | 20.2 ± 3.05 | > 50 |  | 
23 | Cc1ccc(C(=O)N2C(=O)/C(=C/c3ccccc3Cl)c3ccccc32)cc1 [Compound B6, (E)-3-(2-chlorobenzylidene)-1-(4-methylbenzoyl)indolin-2-one] | 145.3 to 146.9 | 22.4 ± 3.64 | > 50 |  | 
24 | O=C1/C(=C/c2cccc(Cl)c2)c2ccccc2N1C(=O)c1ccccc1Cl [Compound B7, (E)-1-(2-chlorobenzoyl)-3-(3-chlorobenzylidene)indolin-2-one] | 108.3 to 109.7 | 14.9 ± 2.37 | > 50 |  | 
25 | O=C1/C(=C/c2cccc(Cl)c2)c2ccccc2N1C(=O)c1cccc(Cl)c1 [Compound B8, (E)-1-(3-chlorobenzoyl)-3-(3-chlorobenzylidene)indolin-2-one] | 112.4 to 114 | 8.63 ± 1.55 | > 50 |  | 
26 | O=C1/C(=C/c2cccc(Cl)c2)c2ccccc2N1C(=O)c1ccc(Cl)cc1 [Compound B9, (E)-1-(4-chlorobenzoyl)-3-(3-chlorobenzylidene)indolin-2-one] | 103.5 to 104.8 | 15.9 ± 1.96 | > 50 |  | 
